{"source": "paper PMC13070491", "about": "“Single-nucleus transcriptomics, pharmacokinetics, and pharmacodynamics of CDK4/6 and mTOR inhibition in a Phase 0/1 trial of recurrent high-grade glioma” (Neuro-Oncology, 2025)", "key": {"[1]": {"experiment": "Plasma pharmacokinetic parameters (LC-MS/MS)", "conditions": "plasma; for AUC(0-t) / Cmax / half-life / Tmax: human, oral; for AUC(0-t): Total Ribociclib AUClast; for Cmax: Total Ribociclib Cmax", "description": "Pharmacokinetic evaluation was conducted as previously described[8] using a validated liquid chromatography with tandem mass spectrometry (LC-MS/MS) method.[16] […] CSF samples were intraoperatively collected."}, "[2]": {"experiment": "Adverse events related to study treatment (CTCAE)", "assay_type": "in vivo, human", "description": "Eligibility was determined based on previous clinical records, panel DNA sequencing, and IHC of archival tissue from a previous surgery (Figure 1, Supplementary Figure S2A)."}, "[3]": {"conditions": "Dose Level 4: ribociclib 600mg QD 5 days + everolimus 50mg single dose, CTCAE grade 1"}, "[4]": {"conditions": "Dose Level 5: ribociclib 600mg QD 5 days + everolimus 60mg single dose, CTCAE grade 2"}}, "note": "Values joined by “and” are separate entries in the source; they are usually repeats but may differ in a detail not shown here. Equal values may be shown once.", "data": [{"smiles": "CN(C)C(=O)c1cc2cnc(Nc3ccc(N4CCNCC4)cn3)nc2n1C1CCCC1", "note": "[Ribociclib, ribociclib]", "values": [{"measurement": "AUC(0-t)", "setting": "[1]; 400 mg, Mean", "value": 18.5, "unit": "µM·h"}, {"measurement": "AUC(0-t)", "setting": "[1]; 400 mg, Median", "value": 13.8, "unit": "µM·h"}, {"measurement": "Cmax", "setting": "[1]; 400 mg, Median", "value": 1320, "unit": "nM"}, {"measurement": "half-life", "setting": "[1]; 400 mg, Total Ribociclib T1/2, plasma, Mean", "value": 13.1, "unit": "h"}, {"measurement": "half-life", "setting": "[1]; 400 mg, Total Ribociclib T1/2, plasma, Median", "value": 11.4, "unit": "h"}, {"measurement": "half-life", "setting": "[1]; 400 mg, Unbound Ribociclib T1/2, plasma, Mean", "value": 11.3, "unit": "h"}, {"measurement": "half-life", "setting": "[1]; 400 mg, Unbound Ribociclib T1/2, plasma, Median", "value": 11.2, "unit": "h"}, {"measurement": "half-life", "setting": "[1]; 400 mg, Unbound Ribociclib T1/2, plasma, individual patients", "value": 7.04, "unit": "h"}, {"measurement": "Tmax", "setting": "[1]; 400 mg, Unbound Ribociclib Tmax, Mean", "value": 2.65, "unit": "h"}, {"measurement": "AUC(0-t)", "setting": "[1]; 600 mg, Mean", "value": 28.4, "unit": "µM·h"}, {"measurement": "Cmax", "setting": "[1]; 600 mg, Mean", "value": 2190, "unit": "nM"}, {"measurement": "Cmax", "setting": "[1]; 600 mg, Median", "value": 1810, "unit": "nM"}, {"measurement": "half-life", "setting": "[1]; 600 mg, Total Ribociclib T1/2, plasma, Mean", "value": 17.3, "unit": "h"}, {"measurement": "Tmax", "setting": "[1]; 600 mg, Total Ribociclib Tmax, Mean", "value": 3.23, "unit": "h"}, {"measurement": "half-life", "setting": "[1]; 600 mg, Unbound Ribociclib T1/2, plasma, Median", "value": 11.5, "unit": "h"}, {"measurement": "Tmax", "setting": "[1]; 600 mg, Unbound Ribociclib Tmax, Mean", "value": 4.76, "unit": "h"}, {"measurement": "Total Ribociclib CL/F", "setting": "[1]; 400 mg, Mean", "value": 62.22, "unit": "L/h"}, {"measurement": "Total Ribociclib Tmax", "setting": "[1]; 400 mg, Mean", "value": 3.00, "unit": "h"}, {"measurement": "Unbound Ribociclib Cmax", "setting": "[1]; 400 mg, Mean", "value": 290, "unit": "nM"}, {"measurement": "Total Ribociclib CL/F", "setting": "[1]; 400 mg, Median", "value": 66.79, "unit": "L/h"}, {"measurement": "Unbound Ribociclib Cmax", "setting": "[1]; 400 mg, Median", "value": 230, "unit": "nM"}, {"measurement": "Total Ribociclib CL/F", "setting": "[1]; 400 mg, individual patients", "value": "65.30 L/h and 28.56 L/h and 68.28 L/h and 29.74 L/h and 83.61 L/h and 97.80 L/h"}, {"measurement": "Unbound Ribociclib Cmax", "setting": "[1]; 400 mg, individual patients", "value": "310 nM and 690 nM and 150 nM and 260 nM and 120 nM and 190 nM"}, {"measurement": "Unbound Ribociclib T1/2", "setting": "[1]; 400 mg, individual patients", "value": "15.62 h and 13.50 h and 9.01 h"}, {"measurement": "Total Ribociclib CL/F", "setting": "[1]; 600 mg, Mean", "value": 59.77, "unit": "L/h"}, {"measurement": "Unbound Ribociclib Cmax", "setting": "[1]; 600 mg, Mean", "value": 320, "unit": "nM"}, {"measurement": "Unbound Ribociclib T1/2", "setting": "[1]; 600 mg, Mean", "value": 15.49, "unit": "h"}, {"measurement": "Total Ribociclib CL/F", "setting": "[1]; 600 mg, Median", "value": 55.14, "unit": "L/h"}, {"measurement": "Unbound Ribociclib Cmax", "setting": "[1]; 600 mg, Median", "value": 280, "unit": "nM"}, {"measurement": "Total Ribociclib CL/F", "setting": "[1]; 600 mg, individual patients", "value": "22.31 L/h and 79.68 L/h and 49.86 L/h and 52.45 L/h and 57.05 L/h and 59.00 L/h and 104.11 L/h and 29.22 L/h and 48.20 L/h and 71.59 L/h and 35.82 L/h and 156.41 L/h and 47.05 L/h and 55.14 L/h and 66.74 L/h and 66.55 L/h and 50.38 L/h and 59.19 L/h and 24.80 L/h"}, {"measurement": "Total Ribociclib Tmax", "setting": "[1]; 600 mg, individual patients", "value": "3.98 h and 1.67 h and 4.00 h"}, {"measurement": "Unbound Ribociclib Cmax", "setting": "[1]; 600 mg, individual patients", "value": "580 nM and 280 nM and 370 nM and 290 nM and 260 nM and 340 nM and 310 nM and 730 nM and 300 nM and 220 nM and 380 nM and 90 nM and 210 nM and 180 nM and 240 nM and 230 nM and 470 nM"}, {"measurement": "Unbound Ribociclib T1/2", "setting": "[1]; 600 mg, individual patients", "value": "14.45 h and 9.00 h and 8.65 h and 15.15 h and 15.94 h and 42.32 h"}, {"measurement": "Dizziness, No. Patients Affected", "setting": "[2]; [3]", "value": 1}, {"measurement": "Photophobia, No. Patients Affected", "setting": "[2]; [3]", "value": 1}, {"measurement": "Platelet count decreased, No. Patients Affected", "setting": "[2]; Dose Level 5: ribociclib 600mg QD 5 days + everolimus 60mg single dose, CTCAE grade 1", "value": 1}, {"measurement": "Nausea, No. Patients Affected", "setting": "[2]; [4]", "value": 1}, {"measurement": "Pancytopenia (serious adverse event), No. Patients Affected", "setting": "[2]; [4]", "value": 1}, {"measurement": "Electrocardiogram QT prolonged, No. Patients Affected", "setting": "[2]; Dose Level 6: ribociclib 600mg QD 5 days + everolimus 70mg single dose, CTCAE grade 1", "value": 1}]}]}
